According to publication PMC5846726, “Characterization of the Mel1c melatoninergic receptor in platypus (Ornithorhynchus anatinus)” (PLoS ONE, 2018):
Like-named read-outs stand apart in the source and are kept apart here.

Legend:
[1] = tested on: MT2; conditions: introduction statement; cited from earlier work
[2] = molecular target: T1, Xenopus Mel1C (Xenopus laevis, UniProt P49219); test: 2-[125I]-iodomelatonin competition binding, membranes from stably transfected CHO cells, Xenopus Mel1c; conditions: radioligand 2-[125I]-iodomelatonin
T1 construct: expressed in transfected cells
T1 sequence (P49219 1-420): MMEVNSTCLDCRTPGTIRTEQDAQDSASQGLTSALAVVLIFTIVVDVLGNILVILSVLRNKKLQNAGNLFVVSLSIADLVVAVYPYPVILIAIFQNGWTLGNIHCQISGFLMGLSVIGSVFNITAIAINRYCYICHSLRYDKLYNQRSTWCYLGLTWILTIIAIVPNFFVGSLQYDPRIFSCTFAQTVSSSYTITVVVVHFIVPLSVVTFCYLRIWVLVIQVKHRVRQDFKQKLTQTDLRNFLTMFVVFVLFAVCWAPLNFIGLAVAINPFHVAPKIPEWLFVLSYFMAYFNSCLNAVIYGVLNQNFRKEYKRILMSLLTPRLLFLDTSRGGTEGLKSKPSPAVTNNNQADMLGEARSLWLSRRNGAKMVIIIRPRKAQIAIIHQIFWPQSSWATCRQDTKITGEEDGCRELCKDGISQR
Description: (§1) CHO-Flp-In cells (Thermo Fisher Scientific, Waltham, USA) were cultivated in the presence of zeocin (0.1 mg/ml). The cells were cotransfected with either platypus (cloned sequence that will be submitted to GenBank) Mel1c/pcDNA5-FRT (platypus Mel1c) or X. laevis (NM 001087919.1) Mel1c/pcDNA5-FRT (clawed frog Mel1c) and Flp recombinase expression pOG44 plasmid using PEIpro (Invitrogen, Carlsbad, CA). CHO cells stably expressing platypus Mel1c or clawed frog Mel1c were selected using hygromycin (0.6 mg/ml). CHO-Flp-In-platypus Mel1c cells were grown in HAM F12 with 2 mM glutamine and supplemented with 10% fetal calf serum. Cells were selected using antibiotic pressure (hygromycin) for 72 h. […] After confirmation of the presence of the transgene, the cells were amplified up to 2 x 10^9 cells. This material was used to prepare the cell membranes used in further pharmacological experiments.
(§2) This standard procedure was described in a previous experiment with CHO cells expressing the sheep MT2 receptor [23]. […] The resulting pellet was suspended in 5 mM Tris/HCl (pH 7.4) containing 2 mM EDTA and homogenized using a Kinematica polytron. The homogenate was then centrifuged (20,000g, 30 min, 4°C) and the resulting pellet suspended in 75 mM Tris/HCl (pH 7.4) containing 2 mM EDTA and 12.5 mM MgCl2. The protein content was determined according to the method of Lowry et al. using the Bio-Rad kit (Bio-Rad SA, Ivry-sur-Seine, France). Aliquots of membrane preparations were stored in binding buffer (50 mM Tris/HCl, pH 7.4 containing 5 mM MgCl2 and 1 mM EDTA) at –80°C until use.
(§3) This approach has been described very often by our laboratory and others. […] The results were expressed as Ki, taking into account the concentration of radioligand used in each experiment. […] The reaction was stopped by rapid filtration through GF/B Unifilters, followed by three successive washes with ice-cold buffer. Data were analyzed by using the program PRISM (GraphPad Software Inc., San Diego, CA). For saturation assays, the density of binding sites (Bmax) and the dissociation constant of the radioligand (KD) were calculated according to the Scatchard method. […] A similar protocol was used when the binding was performed on whole cells, as described by Legros et al.. As per Plos One policy, all the raw data–listings from radioactivity counter are attached as raw files (Supplementary Tables A to M in S1 Data).

[3] = molecular target: T2, X. laevis Mel1c receptor (Xenopus laevis, UniProt P49219); test: 2-[125I]-iodomelatonin competition binding, transiently transfected COS7 cells, Xenopus Mel1c; conditions: COS7 cells transiently transfected with Mel1c gene; radioligand 2-[125I]-iodomelatonin; two transfections, triplicate; read-out: pKi Xenopus laevis (converted)
T2 construct: expressed in transfected cells; host or cells: COS7 (transient nucleofection, pCIneo vector)
T2 sequence (P49219 1-354 isoform P49219-2): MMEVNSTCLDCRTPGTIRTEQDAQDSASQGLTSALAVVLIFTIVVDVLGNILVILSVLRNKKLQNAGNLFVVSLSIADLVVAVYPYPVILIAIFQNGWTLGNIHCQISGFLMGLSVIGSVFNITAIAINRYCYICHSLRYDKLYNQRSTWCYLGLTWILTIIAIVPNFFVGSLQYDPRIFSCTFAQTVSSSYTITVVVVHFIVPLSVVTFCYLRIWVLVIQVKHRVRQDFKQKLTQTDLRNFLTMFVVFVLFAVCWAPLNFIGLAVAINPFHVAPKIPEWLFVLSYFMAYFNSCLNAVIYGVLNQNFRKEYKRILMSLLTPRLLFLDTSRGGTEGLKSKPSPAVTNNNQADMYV
Description: (§4) COS7 cells obtained from the American Type Culture Collection were maintained in DMEM GlutaMAX (Thermo Fisher Scientific, Waltham, USA) supplemented with 10% (v/v) fetal calf serum. Nucleofection of COS7 cells was performed according to the manufacturer's instructions using the Nucleofector machine (Amaxa, Cologne, Germany). Adherent COS7 cells were washed in phosphate-buffered saline (PBS), trypsinized, and gently resuspended in V nucleofection solution to a final concentration of 7 × 10^6 cells/100 μl. Next, 5 μg of pCIneo/Mel1c vector was mixed with 100 μl of the COS7 cell suspension, transferred to a […] electroporation cuvette, and nucleofected using program A024 and an Amaxa Nucleofector apparatus. Just after the nucleofection, 500 μl of media supplemented with 20% (v/v) fetal calf serum was added to the cell suspension and cultured in a humidified 37°C, 5% CO2 incubator for 20 minutes. Fourteen million cells were transferred to a T225 flask containing 50 ml of media supplemented with 20% (v/v) fetal calf serum and cultured in a humidified 37°C, 5% CO2 incubator. Two days after transfection, the cells were harvested in PBS, pelleted, and stored at -80°C until use.
as §3
(§5) To obtain stable expression of the receptor for future studies, a preliminary step involving transient expression of the receptor was performed. The Mel1c receptors from the three species were expressed in transiently transfected COS7 cells. A limited number of compounds were tested in order to gain a preliminary perception of the characteristics of Mel1c from these species.

[4] = tested on: MT1; conditions: introduction statement; cited from earlier work
[5] = molecular target: T3, Platypus Mel1C (Ornithorhynchus anatinus, UniProt A0A2P1K6N2); test: 2-[125I]-iodomelatonin competition binding, transiently transfected COS7 cells, platypus Mel1c; conditions: COS7 cells transiently transfected with Mel1c gene; radioligand 2-[125I]-iodomelatonin; two transfections, triplicate
Description: as §4, §3, §5

[6] = tested on: quinone reductase 2; QR2; design: method as in PMID 10913150; conditions: introduction statement, 'in the 10 μM range'; cited from earlier work
[7] = molecular target: T3, Platypus Mel1C; test: 2-[125I]-iodomelatonin competition binding, membranes from stably transfected CHO cells, platypus Mel1c
Description: as §1, §2, §3

[8] = tested on: GPR50; conditions: mammalian melatonin-related receptor; cited from earlier work
[9] = molecular target: hMT1 (Homo sapiens, UniProt P48039); test: 2-[125I]-iodomelatonin competition binding, human MT1; conditions: membranes from stably transfected CHO cells; radioligand 2-[125I]-iodomelatonin; read-out: hMT1 (converted)
Description: as §3

[10] = molecular target: T4, G. gallus Mel1c receptor (Gallus gallus, UniProt P49288); test: 2-[125I]-iodomelatonin competition binding, transiently transfected COS7 cells, chicken Mel1c; conditions: COS7 cells transiently transfected with Mel1c gene; radioligand 2-[125I]-iodomelatonin; two transfections, triplicate; read-out: pKi Gallus gallus (converted)
T4 construct: expressed in transfected cells; host or cells: COS7 (transient nucleofection, pCIneo vector)
T4 sequence (P49288 1-346): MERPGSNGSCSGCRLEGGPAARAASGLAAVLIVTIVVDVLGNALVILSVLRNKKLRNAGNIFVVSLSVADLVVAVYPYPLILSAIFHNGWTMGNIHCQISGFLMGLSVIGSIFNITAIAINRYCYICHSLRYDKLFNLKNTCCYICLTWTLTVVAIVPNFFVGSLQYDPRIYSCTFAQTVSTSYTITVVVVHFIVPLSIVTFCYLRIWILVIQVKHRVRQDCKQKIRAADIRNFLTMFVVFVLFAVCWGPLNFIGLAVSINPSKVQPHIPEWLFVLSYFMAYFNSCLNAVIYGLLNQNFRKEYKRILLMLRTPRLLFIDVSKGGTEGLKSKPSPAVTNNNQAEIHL
Description: as §4, §3, §5

[11] = molecular target: T5, hMT2 (Homo sapiens, UniProt P49286); test: 2-[125I]-iodomelatonin competition binding, human MT2; conditions: membranes from stably transfected CHO cells; radioligand 2-[125I]-iodomelatonin; read-out: hMT2 (converted)
T5 sequence (P49286 1-362): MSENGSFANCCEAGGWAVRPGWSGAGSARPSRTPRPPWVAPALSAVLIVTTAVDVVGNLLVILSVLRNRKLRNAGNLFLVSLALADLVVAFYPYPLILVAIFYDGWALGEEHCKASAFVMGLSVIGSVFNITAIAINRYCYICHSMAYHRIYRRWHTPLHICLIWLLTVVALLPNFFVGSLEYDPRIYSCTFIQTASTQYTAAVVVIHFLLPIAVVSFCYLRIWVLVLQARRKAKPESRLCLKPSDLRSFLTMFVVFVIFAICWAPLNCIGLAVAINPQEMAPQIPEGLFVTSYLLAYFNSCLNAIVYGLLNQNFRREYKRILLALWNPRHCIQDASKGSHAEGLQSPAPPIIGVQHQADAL
Description: as §3

[12] = membranes from stably transfected CHO cells, radioligand 2-[125I]-iodomelatonin, read-out: Platypus Mel1C (converted)

T3 sequence (A0A2P1K6N2 1-349): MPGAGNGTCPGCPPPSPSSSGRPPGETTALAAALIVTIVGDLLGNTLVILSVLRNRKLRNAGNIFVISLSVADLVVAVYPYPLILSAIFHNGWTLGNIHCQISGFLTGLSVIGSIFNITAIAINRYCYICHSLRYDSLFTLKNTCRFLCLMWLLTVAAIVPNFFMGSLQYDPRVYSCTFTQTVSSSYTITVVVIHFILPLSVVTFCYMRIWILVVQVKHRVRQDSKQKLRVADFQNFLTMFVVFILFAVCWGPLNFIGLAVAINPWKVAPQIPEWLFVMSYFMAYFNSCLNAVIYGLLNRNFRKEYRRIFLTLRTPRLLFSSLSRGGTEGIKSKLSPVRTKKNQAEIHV
Chain of hMT1 (P48039 whole entry): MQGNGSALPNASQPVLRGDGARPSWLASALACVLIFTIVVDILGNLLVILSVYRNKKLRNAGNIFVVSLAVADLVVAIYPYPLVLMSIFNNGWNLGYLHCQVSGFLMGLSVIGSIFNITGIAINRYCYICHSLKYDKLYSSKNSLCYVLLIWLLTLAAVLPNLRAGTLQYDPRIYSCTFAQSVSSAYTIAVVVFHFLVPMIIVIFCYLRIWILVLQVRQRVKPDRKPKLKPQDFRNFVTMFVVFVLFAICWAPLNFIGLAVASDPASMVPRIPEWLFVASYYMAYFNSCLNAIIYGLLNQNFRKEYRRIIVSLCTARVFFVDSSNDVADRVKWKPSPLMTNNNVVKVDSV

Row | SMILES | affinity of MT2 for melatonin [1] [nM] | Ki [2] [nM] | Ki [3] [nM] | affinity of MT1 for melatonin [4] [nM] | pKi Ornithorhyncus anatinus [5] | affinity of QR2 for melatonin [6] [µM] | Ki ([7]; affinity of platypus Mel1c for melatonin, abstract statement, 'in the 1 nM range') [nM] | Ki [7, 12] [nM] | melatonin binding to GPR50 [8] | Ki [9] [nM] | Ki [10] [nM] | Ki [11] [nM]
1 | COc1ccc2[nH]cc(CCNC(C)=O)c2c1 [Melatonin] | ≤ 1 | 2 | 1.58 | ≤ 1 | 8.6 | ~10 | ~1 | 2 | does not bind melatonin |  |  | 
2 | CCc1ccc2scc(CCNC(C)=O)c2c1 [S22153, N-[2-(5-ethylbenzothiophen-3-yl)ethyl]acetamide] |  | 126 | 100 |  | 7.6 |  |  | 50.1 |  | 6.31 | 200 | 10
